Source: patent publication US12275745B2, “Therapeutic compounds and methods of use” (Genentech, Inc., priority 2021, dated 2025)
Where two headings read alike, the source gives them in different places.

Tests used:
TEAD1 = TEAD1 (Homo sapiens, UniProt P28347); assay: TR-FRET (Lipid HTRF) TEAD lipid pocket probe displacement assay, TEAD1; format: binding; details: His-tagged TEAD1, biotinylated lipid pocket probe, 4 hours
TEAD4 = TEAD4 (Homo sapiens, UniProt Q15561); assay: TR-FRET (Lipid HTRF) TEAD lipid pocket probe displacement assay, TEAD4; format: binding; details: His-tagged TEAD4, biotinylated lipid pocket probe, 4 hours
TEAD3 = TEAD3 (Homo sapiens, UniProt Q99594); assay: TR-FRET (Lipid HTRF) TEAD lipid pocket probe displacement assay, TEAD3; format: binding; details: His-tagged TEAD3, biotinylated lipid pocket probe, 4 hours
Method: (§1) His-tagged TEAD proteins are pre-incubated with TEAD project compounds for 30 minutes or 4 hours at room temperature. Biotinylated lipid pocket probes are then added to the TEAD/Compound mixture and incubated for 60 minutes at room temperature. The lipid pocket probe competes with the test compound for the TEAD lipid pocket until equilibrium is reached. After 60 minutes, Europium labelled anti-His (Perkin Elmer #AD0110) and XL665 labelled streptavidin (CIS Bio 610SAXAC) are added to the TEAD/test compound/lipid pocket mixture and incubated for 30 minutes or 4 hours. TR-FRET values are then measured using an EnVision multi-label plate reader (Perkin Elmer Cat #2104-001 0A.) If the lipid pocket probe binds to TEAD as expected, a TR-FRET signal results from the proximity of anti-His Eu and XL665. If a TEAD lipid pocket binder such as binds and displaces the lipid pocket probe, the disruption of the TEAD:probe interaction results in a decrease in TR-FRET signal. The potency of compounds as TEAD lipid pocket binders is determined by IC50 value generated using a non-linear 4 parameter curve fit.

TEAD2 [1] = target: T1, TEAD2 (Homo sapiens, UniProt Q15562);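 also: TR-FRET competition assay with His-tagged TEAD protein and a biotinylated lipid pocket probe, where probe displacement by compound lowers the signal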
Method: as §1

TEAD2 [2] = target: T1, TEAD2; assay: biochemical
Method: as §1

TEAD1, sequence (P28347 whole entry, species assumed): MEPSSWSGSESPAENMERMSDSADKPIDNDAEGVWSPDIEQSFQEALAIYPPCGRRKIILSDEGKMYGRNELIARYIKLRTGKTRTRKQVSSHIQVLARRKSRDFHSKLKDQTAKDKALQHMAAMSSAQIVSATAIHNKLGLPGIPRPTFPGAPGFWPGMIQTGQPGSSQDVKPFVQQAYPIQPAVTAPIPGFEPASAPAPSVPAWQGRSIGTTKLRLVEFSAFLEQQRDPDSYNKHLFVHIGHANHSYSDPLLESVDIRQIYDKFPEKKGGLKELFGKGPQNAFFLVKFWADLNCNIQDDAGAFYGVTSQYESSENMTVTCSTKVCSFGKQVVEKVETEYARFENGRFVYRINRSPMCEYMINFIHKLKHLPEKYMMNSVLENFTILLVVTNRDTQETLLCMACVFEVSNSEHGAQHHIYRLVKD
TEAD4, sequence (Q15561 whole entry, species assumed): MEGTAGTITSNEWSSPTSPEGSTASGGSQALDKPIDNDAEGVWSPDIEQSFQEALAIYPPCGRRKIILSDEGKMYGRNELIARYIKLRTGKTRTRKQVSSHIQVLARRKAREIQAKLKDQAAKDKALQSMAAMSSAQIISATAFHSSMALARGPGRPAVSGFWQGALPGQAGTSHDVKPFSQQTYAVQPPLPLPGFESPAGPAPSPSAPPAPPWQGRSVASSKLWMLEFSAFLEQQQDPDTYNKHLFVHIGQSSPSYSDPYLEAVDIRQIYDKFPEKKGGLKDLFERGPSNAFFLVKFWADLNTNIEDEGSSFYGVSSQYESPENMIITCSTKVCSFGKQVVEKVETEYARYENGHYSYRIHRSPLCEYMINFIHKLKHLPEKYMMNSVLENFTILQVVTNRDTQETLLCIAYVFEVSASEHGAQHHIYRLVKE
T1 sequence (Q15562 whole entry, species assumed): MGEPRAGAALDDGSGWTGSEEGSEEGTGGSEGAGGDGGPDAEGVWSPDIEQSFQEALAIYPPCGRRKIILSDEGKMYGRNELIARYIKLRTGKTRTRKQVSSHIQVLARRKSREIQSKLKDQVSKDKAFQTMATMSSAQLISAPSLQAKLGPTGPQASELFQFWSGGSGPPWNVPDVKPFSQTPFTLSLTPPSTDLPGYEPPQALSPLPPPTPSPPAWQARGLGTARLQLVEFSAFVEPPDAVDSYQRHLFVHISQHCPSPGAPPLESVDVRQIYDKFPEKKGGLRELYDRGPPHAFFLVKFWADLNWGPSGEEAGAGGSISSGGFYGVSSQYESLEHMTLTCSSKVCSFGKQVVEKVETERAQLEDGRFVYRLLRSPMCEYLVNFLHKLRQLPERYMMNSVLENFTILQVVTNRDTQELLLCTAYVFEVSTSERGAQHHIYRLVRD
TEAD3, sequence (Q99594 whole entry, species assumed): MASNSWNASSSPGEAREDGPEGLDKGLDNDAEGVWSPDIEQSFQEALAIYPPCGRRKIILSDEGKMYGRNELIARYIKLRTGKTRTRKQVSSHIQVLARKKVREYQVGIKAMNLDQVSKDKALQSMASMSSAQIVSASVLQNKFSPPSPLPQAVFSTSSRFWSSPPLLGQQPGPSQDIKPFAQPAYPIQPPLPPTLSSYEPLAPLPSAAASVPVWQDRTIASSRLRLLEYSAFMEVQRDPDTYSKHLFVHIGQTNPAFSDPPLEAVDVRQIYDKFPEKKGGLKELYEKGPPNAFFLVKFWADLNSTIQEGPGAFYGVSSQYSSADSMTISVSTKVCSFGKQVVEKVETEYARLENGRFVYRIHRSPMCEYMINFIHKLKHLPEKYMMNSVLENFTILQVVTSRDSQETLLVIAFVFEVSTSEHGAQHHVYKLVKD

Row | IC50 (TEAD1) | IC50 (TEAD4) | IC50 (TEAD3) | IC50 (TEAD2 [1]) | IC50 (TEAD2 [2]) | SMILES
1 | 32 nM | 54 nM | 2500 nM | 10 nM |  | C=CC(=O)NCc1cc(-c2ccc(OC(F)(F)F)cc2)c2ncn(C)c2c1[C@@H](C)O (single isomer, unassigned) [Compound 32]
2 | 6.9 nM | 3.5 nM | 93 nM | 6 nM |  | C=CC(=O)NCc1cc(-c2ccc(OC(F)(F)F)cc2)c2ncn(C)c2c1C#CCO [Compound 58, N-[[4-(3-hydroxyprop-1-ynyl)-3-methyl-7-[4-(trifluoromethoxy)phenyl]benzimidazol-5-yl]methyl]prop-2-enamide]
3 | 6.9 nM | 12 nM | 240 nM |  | 19 nM | C=C(F)C(=O)N1CC(c2cc(-c3ccc(OC(F)(F)F)cc3)c3ncn(C)c3c2)C1 [Compound 145, 2-Fluoro-1-(3-(1-methyl-4-(4-(trifluoromethoxy)phenyl)-1H-benzo[d]imidazol-6-yl)azetidin-1-yl)prop-2-en-1-one]
